Source: US8129398B2 (priority 2008, dated 2012)

molecular target: T1, HIV-integrase (Human immunodeficiency virus type 1 group M subtype B, UniProt P12497); assay: HIV-Integrase Inhibition Activity (SPA bead integration assay with P33 labeled target DNA); assay type: biochemical; settings: recombinant integrase, class symbols; read-out: in vitro activity
T1 construct: Recombinant integrase (0.26 ng) was incubated with the beads
Description: HIV-Integrase Inhibition Activity. To evaluate in-vitro activity against HIV-integrase, 5 pmole of biotin labeled substrate DNA was bound to 100 μg of Streptavidin coated PVT SPA beads (Amersham Pharmacia Biotech). Recombinant integrase (0.26 ng) was incubated with the beads for 90 min at 37° C. Unbound enzyme was removed by washing the complex followed by addition of inhibitors and 0.1 fmol of P33 labeled target DNA. The reaction was stopped by adding EDTA to a final concentration of 10 mM. Samples were counted in TopCountNXT (Packard) and the CPM was used as a measure of integration. The reaction condition was as described in A. Engelman and R. Craigie, J. Virol. 69, 5908-5911 (1995). The sequences of substrate and target DNA were described in Nucleic Acid Research 22, 1121-1122 (1994). Activity equal to A refers to a compound having IC50=<10 nM while B and C denote compounds having […] and IC50>100 nM respectively.

Compound	IC50
Cc1cc(C(=O)NC23CCC(CC2)Cn2c3nc(C(=O)NCc3ccc(F)cc3)c(O)c2=O)nn1C [Example 24, 10-(((1,5-Dimethyl-1H-pyrazol-3-yl)carbonyl)amino)-N-(4-fluorobenzyl)-3-hydroxy-4-oxo-4,6,7,8,9,10-hexahydro-7,10-ethanopyrimido[1,2-a]azepine-2-carboxamide]	< 0.01 µM
COC(=O)NC12CCC(CC1)Cn1c2nc(C(=O)NCc2ccc(F)cc2)c(O)c1=O [Example 25, Methyl (2-((4-fluorobenzyl)carbamoyl)-3-hydroxy-4-oxo-6,7,8,9-tetrahydro-7,10-ethanopyrimido[1,2-a]azepin-10(4H)-yl)carbamate]	< 0.01 µM
O=C(NC12CCC(CC1)Cn1c2nc(C(=O)NCc2ccc(F)cc2)c(O)c1=O)c1ccccn1 [Example 26, N-(4-Fluorobenzyl)-3-hydroxy-4-oxo-10-((2-pyridinylcarbonyl)amino)-4,6,7,8,9,10-hexahydro-7,10-ethanopyrimido[1,2-a]azepine-2-carboxamide]	< 0.01 µM
CN(C)C(=O)NC12CCC(CC1)Cn1c2nc(C(=O)NCc2ccc(F)cc2)c(O)c1=O [Example 27, 10-((Dimethylcarbamoyl)amino)-N-(4-fluorobenzyl)-3-hydroxy-4-oxo-4,6,7,8,9,10-hexahydro-7,10-ethanopyrimido[1,2-a]azepine-2-carboxamide]	0.01 to 0.1 µM
Cc1cc(C(=O)NC23CCC(CC2)Cn2c3nc(C(=O)NCc3ccc(F)cc3)c(O)c2=O)no1 [Example 28, N-(4-Fluorobenzyl)-3-hydroxy-10-(((5-methyl-3-isoxazolyl)carbonyl)amino)-4-oxo-4,6,7,8,9,10-hexahydro-7,10-ethanopyrimido[1,2-a]azepine-2-carboxamide]	< 0.01 µM
CN(C)CC(=O)NC12CCC(CC1)Cn1c2nc(C(=O)NCc2ccc(F)cc2)c(O)c1=O [Example 29, 10-((N,N-Dimethylglycyl)amino)-N-(4-fluorobenzyl)-3-hydroxy-4-oxo-4,6,7,8,9,10-hexahydro-7,10-ethanopyrimido[1,2-a]azepine-2-carboxamide]	0.01 to 0.1 µM
CN(C)C(=O)CNC12CCC(CC1)Cn1c2nc(C(=O)NCc2ccc(F)cc2)c(O)c1=O [Example 30, 10-((2-(Dimethylamino)-2-oxoethyl)amino)-N-(4-fluorobenzyl)-3-hydroxy-4-oxo-4,6,7,8,9,0-hexahydro-7,10-ethanopyrimido[1,2-a]azepine-2-carboxamide]	0.01 to 0.1 µM
O=C(NCc1ccc(F)cc1)c1nc2n(c(=O)c1O)CC1CCC2(NC(=O)C2CCOCC2)CC1 [Example 32, N-(4-Fluorobenzyl)-3-hydroxy-4-oxo-10-((tetrahydro-2H-pyran-4-ylcarbonyl)amino)-4,6,7,8,9,10-hexahydro-7,10-ethanopyrimido[1,2-a]azepine-2-carboxamide]	< 0.01 µM
Cc1ncoc1C(=O)NC12CCC(CC1)Cn1c2nc(C(=O)NCc2ccc(F)cc2)c(O)c1=O [Example 34, N-(4-Fluorobenzyl)-3-hydroxy-10-(((4-methyl-1,3-oxazol-5-yl)carbonyl)amino)-4-oxo-4,6,7,8,9,10-hexahydro-7,10-ethanopyrimido[1,2-a]azepine-2-carboxamide]	< 0.01 µM
O=C(NC12CCC(CC1)Cn1c2nc(C(=O)NCc2ccc(F)cc2)c(O)c1=O)c1ccncc1 [Example 35, N-(4-Fluorobenzyl)-3-hydroxy-4-oxo-10-((4-pyridinylcarbonyl)amino)-4,6,7,8,9,10-hexahydro-7,10-ethanopyrimido[1,2-a]azepine-2-carboxamide]	< 0.01 µM
O=C(NC12CCC(CC1)Cn1c2nc(C(=O)NCc2ccc(F)cc2)c(O)c1=O)c1ccccc1 [Example 36, N-(4-Fluorobenzyl)-3-hydroxy-4-oxo-10-((phenylcarbonyl)amino)-4,6,7,8,9,10-hexahydro-7,10-ethanopyrimido[1,2-a]azepine-2-carboxamide]	< 0.01 µM
Cc1cc(C(=O)NC23CCC(CC2)Cn2c3nc(C(=O)NCc3ccc(F)cc3-n3ncnc3C)c(O)c2=O)no1 [Example 37, N-(4-Fluoro-2-(5-methyl-1H-1,2,4-triazol-1-yl)benzyl)-3-hydroxy-10-(((5-methyl-3-isoxazolyl)carbonyl)amino)-4-oxo-4,6,7,8,9,10-hexahydro-7,10-ethanopyrimido[1,2-a]azepine-2-carboxamide]	0.01 to 0.1 µM
Cc1ncnn1-c1cc(F)ccc1CNC(=O)c1nc2n(c(=O)c1O)CC1CCC2(NS(C)(=O)=O)CC1 [Example 39, N-(4-Fluoro-2-(5-methyl-1H-1,2,4-triazol-1-yl)benzyl)-3-hydroxy-10-((methylsulfonyl)amino)-4-oxo-4,6,7,8,9,10-hexahydro-7,10-ethanopyrimido[1,2-a]azepine-2-carboxamide]	< 0.01 µM
CN(C)S(=O)(=O)NC12CCC(CC1)Cn1c2nc(C(=O)NCc2ccc(F)cc2)c(O)c1=O [Example 40, 10-((Dimethylsulfamoyl)amino)-N-(4-fluorobenzyl)-3-hydroxy-4-oxo-4,6,7,8,9,10-hexahydro-7,10-ethanopyrimido[1,2-a]azepine-2-carboxamide]	< 0.01 µM
O=C(CN1CCCC1=O)NC12CCC(CC1)Cn1c2nc(C(=O)NCc2ccc(F)cc2)c(O)c1=O [Example 43, N-(4-Fluorobenzyl)-3-hydroxy-4-oxo-10-(((2-oxo-1-pyrrolidinyl)acetyl)amino)-4,6,7,8,9,10-hexahydro-7,10-ethanopyrimido[1,2-a]azepine-2-carboxamide]	< 0.01 µM
Cn1cccc1C(=O)C(=O)NC12CCC(CC1)Cn1c2nc(C(=O)NCc2ccc(F)cc2)c(O)c1=O [Example 45, N-(4-Fluorobenzyl)-3-hydroxy-10-(((1-methyl-1H-pyrrol-2-yl) (oxo)acetyl)amino)-4-oxo-4,6,7,8,9,10-hexahydro-7,10-ethanopyrimido[1,2-a]azepine-2-carboxamide]	< 0.01 µM
O=C1CC[C@@H](C(=O)NC23CCC(CC2)Cn2c3nc(C(=O)NCc3ccc(F)cc3)c(O)c2=O)N1 [Example 46, N-(4-Fluorobenzyl)-3-hydroxy-4-oxo-10-((5-oxoprolyl)amino)-4,6,7,8,9,10-hexahydro-7,10-ethanopyrimido[1,2-a]azepine-2-carboxamide]	< 0.01 µM
COc1cnc(Cl)c2[nH]cc(C(=O)C(=O)NC34CCC(CC3)Cn3c4nc(C(=O)NCc4ccc(F)cc4)c(O)c3=O)c12 [Example 47, 10-(((7-Chloro-4-methoxy-1H-pyrrolo[2,3-c]pyridin-3-yl)(oxo)acetyl)amino)-N-(4-fluorobenzyl)-3-hydroxy-4-oxo-4,6,7,8,9,10-hexahydro-7,10-ethanopyrimido[1,2-a]azepine-2-carboxamide]	< 0.01 µM
Cn1ccnc1C(=O)NC12CCC(CC1)Cn1c2nc(C(=O)NCc2ccc(F)cc2)c(O)c1=O [Example 49, N-(4-Fluorobenzyl)-3-hydroxy-10-(((1-methyl-1H-imidazol-2-yl)carbonyl)amino)-4-oxo-4,6,7,8,9,10-hexahydro-7,11-ethanopyrimido[1,2-a]azepine-2-carboxamide]	< 0.01 µM
CN(CC(F)(F)F)C(=O)C(=O)NC12CCC(CC1)Cn1c2nc(C(=O)NCc2ccc(F)cc2)c(O)c1=O [Example 50, N′-(2-((4-Fluorobenzyl)carbamoyl)-3-hydroxy-4-oxo-6,7,8,9-tetrahydro-7,10-ethanopyrimido[1,2-a]azepin-10(4H)-yl)-N-methyl-N-(2,2,2-trifluoroethyl)ethanediamide]	< 0.01 µM
Cc1cc(CNC(=O)c2nc3n(c(=O)c2O)CC2CCC3(NC(=O)C(=O)N(C)CC(F)(F)F)CC2)ccc1F [Example 51, N′-(2-((4-Fluoro-3-methylbenzyl)carbamoyl)-3-hydroxy-4-oxo-6,7,8,9-tetrahydro-7,10-ethanopyrimido[1,2-a]azepin-10(4H)-yl)-N-methyl-N-(2,2,2-trifluoroethyl)ethanediamide]	< 0.01 µM
CN(CCF)C(=O)C(=O)NC12CCC(CC1)Cn1c2nc(C(=O)NCc2ccc(F)cc2)c(O)c1=O [Example 52, N′-(2-((4-Fluorobenzyl)carbamoyl)-3-hydroxy-4-oxo-6,7,8,9-tetrahydro-7,10-ethanopyrimido[1,2-a]azepin-10(4H)-yl)-N-(2-fluoroethyl)-N-methylethanediamide]	< 0.01 µM
Cc1nnc(C(=O)NC23CCC(CC2)Cn2c3nc(C(=O)NCc3ccc(F)cc3)c(O)c2=O)o1 [Example 53, N-(4-Fluorobenzyl)-3-hydroxy-10-(((5-methyl-1,3,4-oxadiazol-2-yl)carbonyl)amino)-4-oxo-4,6,7,8,9,10-hexahydro-7,11-ethanopyrimido[1,2-a]azepine-2-carboxamide]	< 0.01 µM
Cn1cnc(C(=O)NC23CCC(CC2)Cn2c3nc(C(=O)NCc3ccc(F)cc3)c(O)c2=O)n1 [Example 54, N-(4-Fluorobenzyl)-3-hydroxy-10-(((1-methyl-1H-1,2,4-triazol-3-yl)carbonyl)amino)-4-oxo-4,6,7,8,9,10-hexahydro-7,10-ethanopyrimido[1,2-a]azepine-2-carboxamide]	< 0.01 µM
CN(C)C(=O)C(=O)NC12CCC(CC1)Cn1c2nc(C(=O)NCc2cc(Br)c(F)cc2Br)c(O)c1=O [Example 56, N′-(2-((2,5-Dibromo-4-fluorobenzyl)carbamoyl)-3-hydroxy-4-oxo-6,7,8,9-tetrahydro-7,10-ethanopyrimido[1,2-a]azepin-10(4H)-yl)-N,N-dimethylethanediamide]	< 0.01 µM
